From patent US12419888B2, “Methods of treating elevated plasma cholesterol” (INSTITUT DE CARDIOLOGIE DE MONTREAL, priority 2020, dated 2025) come the findings set out here.

The target in data set [1] is Biotinylated PCSK9 (Homo sapiens (Human), UniProt Q8NBP7). Nature of the data set: Binding affinity of SHIM compounds to PCSK9 by surface plasmon resonance spectroscopy (Biacore T200). Particulars: SPR, range tested 0.5-10 uM, 1:1 Langmuir model, NB = no binding detected in the tested range. How it is done:
Studies of SHIM compounds—PCSK9 interactions. […] Biotinylated PCSK9 (ACRO Biosystems) at 1 μg/mL has been captured on a chip on which streptavidin has been immobilized with amine-directed chemistry according to the manufacturer's instructions (6000 RU) to a density of 6000 RU in PBS-P ([…], 0.005% Tween 20, pH7.4) buffer with 1% DMSO. SHIMs at 10, 3.3, 1.1, 0.33 and 0.11 uM were injected at 30 uL/min. […] Double reference method of analysis was used with the reference channel containing a reference biotinylated protein captured at 6000 RU.
(SPR reads the build-up and loss of mass on a sensor chip optically.)

Data set [2] relates to LDLR protein levels in HepG2 cells. The data set is described as follows: Western blot analysis of relative LDLR protein levels in HepG2 cells after treatment. It is filed as cell-based, human. Particulars: HepG2 cells incubated overnight with compound, 0.2 μM to 20 μM. In general terms: A western blot detects proteins with antibodies after separation by electrophoresis.
In data set [3] the test system is hypercholesterolemic C57BL/6 Pcsk9 KO mice. Nature of the data set: Efficacy and safety in hypercholesterolemic C57BL/6 Pcsk9 KO mice on Western diet, oral gavage. The data set is classed as in vivo. Particulars: 40 mg/kg/day oral gavage for 10 days.
Excerpt: Animal studies. All animal studies were approved by the Montreal Heart Institute (MHI) Animal Care and Ethical committee. For in vivo proof-of-concept animal studies, wild-type C57BL/6 or Pcsk9 knockout male mice were fed on Western diet containing 48.5% w/w carbohydrate, 21.2% w/w fat, 17.3% w/w protein and 0.2% w/w cholesterol (catalog no. TD.88137, Envigo) for 14 days. Chemical compounds were mixed in DMSO/propylene glycol/water; 1:7:2 (v/v) and administered by oral gavage at 0 (vehicle) or 40 mg/kg/day for 10 days in mice on Western diet. Plasma lipoprotein cholesterol profiles were obtained from 100 μL of pooled plasma injected on a Superose 6 10/300 GL (catalog no. 17-5172-01, GE Life Sciences) and eluted with PBS at a flow rate of 0.1 mL per min at 4° C. mounted on a AKTA explorer system (GE Healthcare). Serum aspartate aminotransferase (AST), alanine transaminase (ALT), insulin, glucose and complete hematology tests were measured by the Montreal Heart Institute biochemical clinical chemistry platform according to manufacturer's recommendations.

Biotinylated PCSK9, sequence (Q8NBP7 153-692): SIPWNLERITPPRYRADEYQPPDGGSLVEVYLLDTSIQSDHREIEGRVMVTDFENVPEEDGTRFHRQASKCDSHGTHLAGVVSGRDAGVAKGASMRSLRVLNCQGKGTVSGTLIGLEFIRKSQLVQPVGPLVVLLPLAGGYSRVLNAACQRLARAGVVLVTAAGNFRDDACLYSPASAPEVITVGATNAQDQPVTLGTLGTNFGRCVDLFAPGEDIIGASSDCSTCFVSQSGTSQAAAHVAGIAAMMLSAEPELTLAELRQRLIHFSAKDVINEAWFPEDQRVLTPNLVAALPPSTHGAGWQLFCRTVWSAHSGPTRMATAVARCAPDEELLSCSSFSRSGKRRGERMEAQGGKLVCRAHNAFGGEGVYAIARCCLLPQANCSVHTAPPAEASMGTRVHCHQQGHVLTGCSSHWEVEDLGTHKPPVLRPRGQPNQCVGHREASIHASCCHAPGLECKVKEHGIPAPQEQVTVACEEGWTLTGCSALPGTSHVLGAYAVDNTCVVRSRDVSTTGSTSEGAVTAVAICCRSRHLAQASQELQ

Broadly, the Kd is the constant that tells how readily two partners part at equilibrium. For the compound `O=C(c1csc(-c2cccs2)n1)N1CCc2c([nH]c3ccccc23)C1c1ccccn1` (stereo not drawn) [Compound 26, 1-(2-pyridinyl)-2-{[2-(2-thienyl)-1,3-thiazol-4-yl]carbonyl}-2,3,4,9-tetrahydro-1H-beta-carboline], the Kd in data set [1] (read-out: KD - equilibrium dissociation constant) stood at 11 µM. Further, in data set [1] (read-out: ka - association rate constant), the kon came out at 104000 M⁻¹ s⁻¹. In addition, the koff in data set [1] (read-out: kd - dissociation rate constant) came out at 1.14 s⁻¹. Moreover, the “LDLR Fold (relative LDLR protein levels)” value in data set [2] is given as 1.9 ± 0.5 Fold. In addition, in data set [3], the ALT is 24 U/L, the AST amounted to 67 U/L, the Glucose was 16.3 mmol/L and the “ΔBody Weight (D 10 − D 0)” value turned out to be 99%. Also, in data set [3] (Western diet), the HDL-C is recorded as 3.00 mmol/L, the “LDL-C (measured)” value came to 0.23 mmol/L, the TC is on record as 3.03 mmol/L and the TG came out at 0.90 mmol/L. The compound further yielded a nonHDL-C in data set [3] (Western diet) of 0.04 mmol/L. The “LDL-C (pooled plasma) (FPLC AUC) (Fold Change %)” value in data set [3] (pooled plasma FPLC) is on record as −61%.
